{"source": "patent US20220241223A1", "about": "“USE OF DISULFIRAM OR ITS DERIVATIVES FOR THE TREATMENT OF MITOCHONDRIAL DISEASES OR DYSFUNCTION” (Universite D'angers, priority 2019, published 2022)", "key": {"A29G cells": {"tested_on": "A29G cells", "assay": "Growth in liquid non-fermentable medium with increasing DSF concentrations", "format": "cell-based, Saccharomyces cerevisiae", "settings": "48 h", "experimental": "Exponentially growing cells were inoculated in fresh non-fermentable YPG or YPE media supplemented, or not, with increasing DSF concentrations.\nMore precisely, the shy1-G137R and Δcoa6 cells have been grown for 40 h in liquid medium containing 2% glycerol and 0.1% galactose as carbon source and increasing concentrations of DSF (100 nM to 6 μM). The A29G and fmc1Δ cells have been grown for 48 h in liquid medium containing 2% glycerol as carbon source and increasing concentrations of DSF (50 nM to 5 μM). The taz1Δ and sym1Δ cells have been grown for 48 h in rich liquid medium containing 2% ethanol/0.2% galactose and 2% glycerol/2% ethanol as a carbon source, respectively, and increasing concentrations of DSF (100 nM to 9 μM)."}, "[1]": {"tested_on": "all the tested mutant strains", "assay": "Halo test of growth on respiratory medium, all strains together (FIG. 1A)", "format": "cell-based, Saccharomyces cerevisiae", "settings": "at different extents", "experimental": "A/ Effect of DSF on growth of various mutant yeast strains on a respiratory medium as detected by halo tests.\nEach of the various Saccharomyces cerevisiae yeast strains used in examples 1 to 3 contain different specific mutations modeling human mutations resulting in mitochondrial diseases. At different extents, all these yeast strains present growth defect when grown on respiratory medium such as ethanol or glycerol at 28° C. or 36° C. (depending on the strain). […]\nMore precisely, 200 μL of the various yeast mutant strain grown in liquid YPD rich fermentable medium (1% Yeast Extract, 0.5% Bacto Peptone, 2% Glucose) at 0.4 OD600 were spread on agar-based solid respiratory medium: either YPG (1% Yeast Extract, 0.5% Bacto Peptone, 2% glycerol) or YPE (1% Yeast Extract, 0.5% Bacto Peptone, 2% ethanol). Small sterile filters were then placed on the agar surface and increasing concentrations of DSF were added to the filters at the indicated quantities. […]"}, "[2]": {"tested_on": "mitochondrial complex I in MELAS neuronal cybrid cells", "assay": "Complex I enzyme activity in MELAS cybrid cells", "format": "cell-based, human", "settings": "FIG. 5; various concentrations, especially from 30 to 90 nM; 48 h exposure; low glucose medium (0.5 g/l)", "experimental": "FIG. 5: Effect of DSF compared to untreated mutant cells (DMSO vehicle) after 48 h exposure on complex I enzyme activity in MELAS neuronal cybrid cells in low glucose medium (0.5 g/l).\nThe SH-SY5Y neuronal mutant cybrid cells, carrying the m.3243A>G with 98.6% mutant load responsible for MELAS syndrome, were cultured in standard DMEM high glucose media (4.5 g/L) or in low glucose (0.5 g/L), supplemented with 10% fetal bovine serum, 1% glutamine and 50 μg/ml uridine at 37° C. in presence of 5% CO2 as described elsewhere (Desquiret-Dumas et al. & Geffroy et al.). To optimize drug concentrations, cells were shifted to low glucose-medium 0.5 g/l (to force the cells to rely on OXPHOS rather than glycolysis) supplemented with various concentrations of DSF or of the vehicle (DMSO).\nComplex I enzyme activity was measured at 37° C. on an UVmc2 spectrophotometer (SAFAS) as described (Desquiret-Dumas et al., 2012). For complex I enzyme activity, 0.5 million of cells were sonicated (6 cycles of 5 seconds) then incubated at 37° C. in the reaction medium (KH2PO4 100 mM, pH 7.4, KCN 1 mM, NaN3 2 mM, BSA 1 mg/ml, ubiquinone-1 0.1 mM and DCPIP 0.075 mM). The reaction was started by adding 0.15 mM NADH and the disappearing rate of DCPIP was measured at 600 nm for 2 minutes. The unspecific activity was determined in the presence of rotenone (5 μM)."}, "[3]": {"tested_on": "normal cells or intact mitochondria", "settings": "very high concentrations (above 25 μM); Gill, Mali, Kuroda, Hassinen; cited from earlier work"}}, "data": [{"smiles": "CCN(CC)C(=S)SSC(=S)N(CC)CC", "note": "[DSF, 1-(diethylthiocarbamoyldisulfanyl)-N,N-diethyl-methanethioamide]", "values": [{"measurement": "optimal concentration", "setting": "A29G cells; A29G mutation, suppression of respiratory growth defect, 2% glycerol", "value": "150 to 200", "unit": "nM"}, {"measurement": "IC50", "setting": "A29G cells; Saccharomyces cerevisiae, read-out: toxic dose (IC50)", "value": 400, "unit": "nM"}, {"measurement": "effect on growth defect on non-fermentable (respiratory) medium", "setting": "[1]", "value": "suppresses the growth defect"}, {"measurement": "effect on complex I activity", "setting": "[2]", "value": "increases complex I activity"}, {"measurement": "effect on mitochondrial function", "setting": "[3]", "value": "affect mitochondrial function"}]}]}
